Experimental findings from ChEMBL document CHEMBL1136367, “Design and synthesis of novel benzofurans as a new class of antifungal agents targeting fungal N-myristoyltransferase. Part 3” (Bioorg Med Chem Lett, 2003) are described below.

In series [1] the test system is Candida albicans. Nature of the series: In vitro antifungal activity against Candida albicans (CY1002) in YNBPB medium. In kind it is functional, organism-based.
Series [2] can be described thus: Pharmacokinetic property when administered intravenously in rat at 2 mg/kg. Also noted: dose 2 mg/kg, route intravenous. The following applies: in vivo, iv. In kind it is ADME, organism-based.
Series [3] is filed under the species Rattus norvegicus. Nature of the series: Antifungal activity determined in rat infected with Candida albicans CY1002. The series is classed as functional.
Series [4] addresses T1, Peptide N-myristoyltransferase (Homo sapiens, UniProt P30419+O60551).
T1 sequence (P30419 whole entry): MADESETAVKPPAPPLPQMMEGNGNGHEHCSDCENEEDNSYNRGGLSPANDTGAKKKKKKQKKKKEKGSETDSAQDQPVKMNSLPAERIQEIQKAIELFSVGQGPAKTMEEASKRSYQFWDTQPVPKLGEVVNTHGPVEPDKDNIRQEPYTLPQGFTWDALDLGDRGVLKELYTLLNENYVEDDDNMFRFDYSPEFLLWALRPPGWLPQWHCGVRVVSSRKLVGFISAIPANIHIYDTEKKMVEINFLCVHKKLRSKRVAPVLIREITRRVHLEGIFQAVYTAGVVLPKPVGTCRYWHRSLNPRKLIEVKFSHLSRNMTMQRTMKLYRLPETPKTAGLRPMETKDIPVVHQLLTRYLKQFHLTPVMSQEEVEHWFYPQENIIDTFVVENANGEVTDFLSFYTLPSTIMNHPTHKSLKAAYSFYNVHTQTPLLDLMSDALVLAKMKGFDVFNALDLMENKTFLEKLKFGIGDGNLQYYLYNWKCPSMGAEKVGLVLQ
T1 sequence (O60551 whole entry): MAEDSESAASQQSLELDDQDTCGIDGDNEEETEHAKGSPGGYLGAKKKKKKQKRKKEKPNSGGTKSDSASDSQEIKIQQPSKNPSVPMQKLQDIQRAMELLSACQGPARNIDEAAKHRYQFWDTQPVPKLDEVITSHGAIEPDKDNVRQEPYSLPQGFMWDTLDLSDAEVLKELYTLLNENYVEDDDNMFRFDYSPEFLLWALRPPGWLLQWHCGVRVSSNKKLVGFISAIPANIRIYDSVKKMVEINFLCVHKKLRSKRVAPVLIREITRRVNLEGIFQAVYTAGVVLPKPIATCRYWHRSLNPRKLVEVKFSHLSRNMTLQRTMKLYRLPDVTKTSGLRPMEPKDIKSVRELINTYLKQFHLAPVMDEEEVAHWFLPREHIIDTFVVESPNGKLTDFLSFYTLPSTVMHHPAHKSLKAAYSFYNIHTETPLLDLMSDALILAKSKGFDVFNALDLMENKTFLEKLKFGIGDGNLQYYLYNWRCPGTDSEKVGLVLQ
Nature of the series: In vitro inhibitory activity against human Nmt (HsNmt) using 0.5 uM peptide GNAASAR-R-NH2 and 0.5 uM myristoyl-CoA. In kind it is protein assay.

A short description of series [5]: Half life period was evaluated in rat plasma. The series is classed as ADME, organism-based.
Series [6] concerns the target Peptide N-myristoyltransferase (Aspergillus fumigatus). Put plainly: In vitro inhibitory activity against Aspergillus fumigatus Nmt (AfNmt) using substrate peptide GLTISKLFR-R-NH2 (0.5 uM) and myristoyl-CoA (0.5 uM).
Series [7] concerns Candida albicans. Nature of the series: In vitro antifungal activity against Candida albicans (CY1002) in 80% calf serum. In kind it is functional, organism-based.
For series [8], the target named is Peptide N-myristoyltransferase (Candida albicans). Put plainly: In vitro inhibitory activity against Candida albicans Nmt (CaNmt) using substrate peptide GLTISKLFR-R-NH2 (0.5 uM) and myristoyl-CoA (0.5 uM).
Series [9] shares this target. Described as above. This is another data set of the same source.
For series [10] the target is unchanged. Nature of the series: Inhibitory activity against Candida albicans Nmt (CaNmt) using substrate peptide GLTISKLFR-R-NH2 (0.5 uM) and myristoyl-CoA (0.5 uM).
Series [11] concerns Candida albicans. Put plainly: In vitro antifungal activity against Candida albicans (CY1002) in YNBPB medium in rat. In kind it is functional, organism-based.
The species named for series [12] is Rattus norvegicus. Put plainly: Antifungal activity determined in rat infected with Candida albicans CY1002. The series is classed as functional.
The target of series [13] is Peptide N-myristoyltransferase (Aspergillus fumigatus). Put plainly: In vitro inhibitory activity against aspergillus fumigatus Nmt (AfNmt) using substrate peptide GLTISKLFR-R-NH2 (0.5 uM) and myristoyl-CoA (0.5 uM).
The target of series [14] is Peptide N-myristoyltransferase (Candida albicans). Nature of the series: In vitro inhibitory activity against candida albicans Nmt (CaNmt) using substrate peptide GLTISKLFR-R-NH2 (0.5 uM) and myristoyl-CoA (0.5 uM).
The next series deals with Mus musculus. Nature of the series: In vivo efficacy expressed as effective dose against murine systematic candidiasis model. The series is classed as functional.

`C=CCn1c(C(=O)c2oc3cccc(OCCCNCc4cccnc4)c3c2C)nc2ccccc21`: the IC50 with Candida albicans [1] was determined as 48 nM; in [4], 85000 nM; in series [6] it was 5100 nM; with Candida albicans [7], 420 nM; in [8], 0.58 nM. This compound registered an AUC in series [2] of 570 ng·h/mL. For the same compound, the ED50 in the series filed under Rattus norvegicus [3] came to 8.7 mg/kg. For the same compound, in series [5], the half-life was 48 min.

With `Cc1c(C(=O)c2ccccn2)oc2cccc(OCCCNCc3cccnc3)c12`, the IC50 was 65 nM with Candida albicans [1]; 3.5 nM in series [9]; 340000 nM in series [4]; 42000 nM in series [6]; 470 nM in the series with Candida albicans [7]. For the same compound, in [2], the AUC worked out at 410 ng·h/mL. Further, in series [5], the half-life is 32.4 min.

For `Cc1c(C(=O)c2nc3ccccc3n2C(C)C)oc2cccc(OCCCNCc3cccnc3)c12`, the IC50 came out at 19 nM in the series with Candida albicans [1]; 99000 nM in series [4]; 480 nM in series [6]; 2700 nM in the series on Candida albicans [7]; 1.3 nM in series [8]. In series [2], this compound came in with an AUC of 810 ng·h/mL. Further, the half-life in series [5] was 51.6 min.

For the compound `Cc1c(C(=O)c2nccs2)oc2cccc(OCCCNCc3cccnc3)c12`, the IC50 with Candida albicans [1] was determined as 540 nM; in series [4], 25000 nM; in [6] it was 63000 nM; in the series with Candida albicans [7], 8300 nM; in series [8], 91 nM.

As for `Cc1c(C(=O)c2cccnc2)oc2cccc(OCCCNCc3cccnc3)c12`, the IC50 in series [10] turned out to be 62 nM. This counts as double-digit nanomolar.

On to `Cc1nc(C(=O)c2oc3cccc(OCCCNCc4cccnc4)c3c2C)sc1C`, for which the IC50 in the series with Candida albicans [1] was determined as 39 nM; in series [4] it was 83000 nM; in series [6], 4300 nM; in the series on Candida albicans [7], 190 nM; in [8] it was 0.71 nM. Besides, the AUC in series [2] was 320 ng·h/mL. In [5], this compound showed a half-life of 39 min.

As for `Cc1c(C(=O)c2ccco2)oc2cccc(OCCCNCc3cccnc3)c12`, the IC50 in the series on Candida albicans [1] is 4600 nM; in series [4], 280000 nM; in series [6] it was 150000 nM; in the series with Candida albicans [7], 25000 nM; in series [8], 1400 nM.

On to `Cc1c(Cc2ccccn2)oc2cccc(OCCCNCc3cccnc3)c12`, for which, in [10], the IC50 is 1900 nM.

As for `Cc1c(C(=O)c2ccccc2)oc2cccc(OCCCNCc3cccnc3)c12`, in series [10], the IC50 is 1200 nM.

With `Cc1c(C(=O)c2ncccc2C(F)(F)F)oc2cccc(OCCCNCc3cccnc3)c12`, the IC50 in the series on Candida albicans [1] was 340 nM; in series [4] it was above 430000 nM; in series [6], 11000 nM; with Candida albicans [7], 5100 nM; in [8] it was 43 nM. The same compound displayed an AUC in series [2] of 590 ng·h/mL. Besides, the half-life in series [5] was 33.6 min.

Regarding `Cc1ccc(C(=O)c2oc3cccc(OCCCNCc4cccnc4)c3c2C)nc1`, the IC50 is 36 nM in the series on Candida albicans [11]; above 480000 nM in series [4]; 4100 nM in series [13]; 82 nM in the series on Candida albicans [7]; 0.39 nM in series [14]. The compound further came in with an ED50 in the series filed under Rattus norvegicus [12] of 15 mg/kg. Further, in [2], the AUC was determined as 440 ng·h/mL. The half-life in series [5] was 34.8 min.

`Cc1c(COc2ccc(F)c(F)c2F)oc2cccc(OCCCNCc3cccnc3)c12`: in the series with Mus musculus, the 50% effect level (ED50) was put at a dose of 7.1 mg/kg. Also, in series [5], the half-life is 120 min.

Take `OC(Cn1cncn1)(Cn1cncn1)c1ccc(F)cc1F` [FLUCONAZOLE]: the AUC in series [2] was determined as 19600 ng·h/mL. Besides, the half-life in series [5] is 240 min.

Turning to `Cc1csc(C(=O)c2oc3cccc(OCCCNCc4cccnc4)c3c2C)n1`, the IC50 in the series on Candida albicans [1] worked out at 140 nM; in [4], 130000 nM; in series [6] it was 18000 nM; in the series on Candida albicans [7], 740 nM; in series [8], 2 nM. In addition, the AUC in series [2] worked out at 470 ng·h/mL. The compound also had a half-life in series [5] of 20.4 min.

Take `Cc1c(C(=O)c2nc3ccccc3n2C)oc2cccc(OCCCNCc3cccnc3)c12`: the IC50 was found to be 35 nM with Candida albicans [1]; 94000 nM in [4]; 13000 nM in series [6]; 1200 nM in the series with Candida albicans [7]; 0.4 nM in series [8]. In series [2], this compound had an AUC of 450 ng·h/mL. Besides, the half-life in [5] is 35.4 min.

`Cc1c(C(O)c2ccccn2)oc2cccc(OCCCNCc3cccnc3)c12` (stereo not given): the IC50 in series [10] is 47 nM.

With `Cc1c(C(=O)c2nccn2C)oc2cccc(OCCCNCc3cccnc3)c12`, the IC50 came out at 120 nM in the series on Candida albicans [1] and 3000 nM in the series on Candida albicans [7]. In addition, in series [2], the AUC was determined as 530 ng·h/mL. For the same compound, in series [5], the half-life is 27 min.

By IC50 is commonly meant the concentration that inhibits the measured activity by half. A low value points to inhibition by little substance. A word on the AUC: it is the area under the concentration-time curve, a measure of exposure. A low value points to less exposure. Broadly, the ED50 is the dose that gives a 50% effect, or the effect in half of the subjects. Lower therefore signals greater potency. A word on the half-life: it is the time in which the quantity being followed falls by half. Read a low half-life as rapid decline.
